Measurements published in US9663529B2, “Tricyclic pyrido-carboxamide derivatives as rock inhibitors” (BRISTOL-MYERS SQUIBB COMPANY, priority 2013, dated 2017).

Test system: rat stroke model
Assay: not given
Conditions: in vivo; cited from earlier work

Row | Structure (SMILES) | infarct size and neurologic deficit
1 | O=S(=O)(c1cccc2cnccc12)N1CCCNCC1 [fasudil] | reduce both the infarct size and neurologic deficit

Test system: IL-1 beta-induced coronary stenosis
Assay: not given
Conditions: long term treatment; cited from earlier work

Row | Structure (SMILES) | coronary constrictive remodeling | coronary stenosis
2 | O=S(=O)(c1cccc2cnccc12)N1CCCNCC1 [fasudil] | promote a regression of coronary constrictive remodeling | progressively reduce coronary stenosis

Test system: congestive heart failure in Dahl salt-sensitive rats
Assay: not given
Conditions: rat, in vivo; cited from earlier work

Row | Structure (SMILES) | ventricular hypertrophy, fibrosis and function
3 | C[C@@H](N)[C@H]1CC[C@H](C(=O)Nc2ccncc2)CC1 [Example Y-27632, Y-27632] | improve ventricular hypertrophy, fibrosis and function

Biological target: ROCK2 (Homo sapiens (Human), UniProt O75116)
Assay: ROCK assay (Caliper LABCHIP peptide phosphorylation, 5 μM ATP)
Format: biochemical
Conditions: 1.5 μM peptide substrate

ROCK2, sequence (O75116 whole entry, species assumed): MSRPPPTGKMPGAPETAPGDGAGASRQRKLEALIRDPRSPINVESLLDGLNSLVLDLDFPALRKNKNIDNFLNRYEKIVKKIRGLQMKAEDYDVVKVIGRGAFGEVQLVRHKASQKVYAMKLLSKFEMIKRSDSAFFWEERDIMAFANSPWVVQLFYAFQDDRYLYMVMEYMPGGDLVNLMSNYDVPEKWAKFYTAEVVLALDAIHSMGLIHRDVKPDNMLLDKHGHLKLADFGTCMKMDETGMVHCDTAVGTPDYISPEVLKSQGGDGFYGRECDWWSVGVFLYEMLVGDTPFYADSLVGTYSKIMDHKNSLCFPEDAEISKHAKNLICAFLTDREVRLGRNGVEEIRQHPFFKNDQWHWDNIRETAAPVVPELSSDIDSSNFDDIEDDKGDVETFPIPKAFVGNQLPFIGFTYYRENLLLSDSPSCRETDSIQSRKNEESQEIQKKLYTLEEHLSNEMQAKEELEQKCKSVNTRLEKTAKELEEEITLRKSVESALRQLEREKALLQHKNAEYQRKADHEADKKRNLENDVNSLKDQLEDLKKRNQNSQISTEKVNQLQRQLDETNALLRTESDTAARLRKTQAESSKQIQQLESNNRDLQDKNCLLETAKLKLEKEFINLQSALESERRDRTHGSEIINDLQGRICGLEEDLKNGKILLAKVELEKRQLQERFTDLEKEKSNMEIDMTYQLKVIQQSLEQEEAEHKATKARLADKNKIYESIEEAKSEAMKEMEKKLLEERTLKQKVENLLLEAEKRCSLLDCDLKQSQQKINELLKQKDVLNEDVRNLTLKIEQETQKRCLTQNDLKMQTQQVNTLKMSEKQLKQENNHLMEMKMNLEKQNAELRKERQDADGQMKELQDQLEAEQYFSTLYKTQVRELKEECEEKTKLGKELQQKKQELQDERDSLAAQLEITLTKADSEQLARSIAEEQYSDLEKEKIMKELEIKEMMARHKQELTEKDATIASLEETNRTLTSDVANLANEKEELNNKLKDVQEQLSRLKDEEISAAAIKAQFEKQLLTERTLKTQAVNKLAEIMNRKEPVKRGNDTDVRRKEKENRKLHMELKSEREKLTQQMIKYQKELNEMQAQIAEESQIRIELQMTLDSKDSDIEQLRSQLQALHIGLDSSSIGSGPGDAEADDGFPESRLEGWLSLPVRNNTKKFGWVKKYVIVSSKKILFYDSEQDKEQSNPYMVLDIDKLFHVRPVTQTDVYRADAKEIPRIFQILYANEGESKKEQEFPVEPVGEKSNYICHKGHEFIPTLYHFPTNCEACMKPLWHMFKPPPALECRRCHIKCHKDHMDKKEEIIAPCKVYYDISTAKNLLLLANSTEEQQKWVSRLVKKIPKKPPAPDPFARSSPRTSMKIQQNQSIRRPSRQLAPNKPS

Row | Structure (SMILES) | IC50 [nM]
4 | COC(=O)c1ccc(C(=O)Nc2ccc3c(c2)OCc2cnccc2-3)cc1 [Example I-56, methyl 4-(5H-chromeno[3,4-c]pyridin-8-ylcarbamoyl) benzoate] | 626
5 | COc1ccc(CCC(=O)Nc2ccc3c(c2)OCc2cnccc2-3)cc1 [Example I-57, N-(5H-chromeno[3,4-c]pyridin-8-yl)-3-(4-methoxyphenyl) propanamide] | 1140
6 | O=C(CCc1ccc(O)cc1)Nc1ccc2c(c1)OCc1cnccc1-2 [Example I-58, N-(5H-chromeno[3,4-c]pyridin-8-yl)-3-(4-hydroxyphenyl) propanamide] | 111
7 | O=C(Cc1nnn[nH]1)Nc1ccc2c(c1)OCc1cnccc1-2 [Example I-59, N-(5H-chromeno[3,4-c]pyridin-8-yl)-2-(1H-tetrazol-5-yl) acetamide] | 3820
8 | O=C(CCc1ccccc1)Nc1ccc2c(c1)OCc1cnccc1-2 [Example I-60, N-(5H-chromeno[3,4-c]pyridin-8-yl)-3-phenylpropanamide] | 40.4
9 | O=C(Nc1ccc2c(c1)OCc1cnccc1-2)c1ccc2ccccc2c1 [Example I-61, N-(5H-chromeno[3,4-c]pyridin-8-yl)-2-naphthamide] | 4720
10 | CN(C)c1ccc(C(=O)Nc2ccc3c(c2)OCc2cnccc2-3)cc1 [Example I-63, N-(5H-chromeno[3,4-c]pyridin-8-yl)-4-(dimethylamino) benzamide] | 2370
11 | Cn1cccc1C(=O)Nc1ccc2c(c1)OCc1cnccc1-2 [Example I-64, N-(5H-chromeno[3,4-c]pyridin-8-yl)-1-methyl-1H-pyrrole-2-carboxamide] | 2960
12 | O=C(Nc1ccc2c(c1)OCc1cnccc1-2)c1ccccc1-c1ccccc1 [Example I-65, N-(5H-chromeno[3,4-c]pyridin-8-yl) biphenyl-2-carboxamide] | 1220
13 | COc1cccc(C(=O)Nc2ccc3c(c2)OCc2cnccc2-3)c1 [Example I-66, N-(5H-chromeno[3,4-c]pyridin-8-yl)-3-methoxybenzamide] | 2590
14 | O=C(CC(c1ccccc1)c1ccccc1)Nc1ccc2c(c1)OCc1cnccc1-2 [Example I-67, N-(5H-chromeno[3,4-c]pyridin-8-yl)-3,3-diphenylpropanamide] | 471
15 | O=C(Cc1ccc(Cl)c(Cl)c1)Nc1ccc2c(c1)OCc1cnccc1-2 [Example I-68, N-(5H-chromeno[3,4-c]pyridin-8-yl)-2-(3,4-dichlorophenyl) acetamide] | 362
16 | O=C(Cc1ccc(C(F)(F)F)cc1)Nc1ccc2c(c1)OCc1cnccc1-2 [Example I-69, N-(5H-chromeno[3,4-c]pyridin-8-yl)-2-(4-(trifluoromethyl)phenyl)acetamide] | 1080
17 | O=C(Cc1ccc(-n2cnc3ccccc3c2=O)cc1)Nc1ccc2c(c1)OCc1cnccc1-2 [Example I-70, N-(5H-chromeno[3,4-c]pyridin-8-yl)-2-(4-(4-oxoquinazolin-3(4H)-yl)phenyl) acetamide] | 1130
18 | O=C(Nc1ccc2c(c1)OCc1cnccc1-2)c1csc(-c2ccncc2)n1 [Example I-71, N-(5H-chromeno[3,4-c]pyridin-8-yl)-2-(pyridin-4-yl)thiazole-4-carboxamide] | 316
19 | O=C(Nc1ccc2c(c1)OCc1cnccc1-2)C1Cc2ccccc2C1 [Example I-72, N-(5H-chromeno[3,4-c]pyridin-8-yl)-2,3-dihydro-1H-indene-2-carboxamide] | 58.7
20 | O=C(Nc1ccc2c(c1)OCc1cnccc1-2)c1nc2ccccc2[nH]1 [Example I-73, N-(5H-chromeno[3,4-c]pyridin-8-yl)-1H-benzo[d]imidazole-2-carboxamide] | 619
21 | O=C(Nc1ccc2c(c1)OCc1cnccc1-2)N1CCc2ccccc21 [Example II-1, N-(5H-Chromeno[3,4-c]pyridin-8-yl)indoline-1-carboxamide] | 387
22 | O=C(Cc1ccccc1)Nc1ccc2c(c1)[nH]c1cnccc12 [Example IV-4, 2-Phenyl-N-(9H-pyrido[3,4-b]indol-7-yl)acetamide] | 9.5

Further lines, results first:

Row | IC50 [nM] | Structure (SMILES)
23 | 50.9 | COc1cccc(CCC(=O)Nc2ccc3c(c2)[nH]c2cnccc23)c1 [Example IV-1, 3-(3-Methoxyphenyl)-N-(9H-pyrido[3,4-b]indol-7-yl)propanamide]
24 | 21 | O=C(Cc1cccc(F)c1)Nc1ccc2c(c1)[nH]c1cnccc12 [Example IV-3, 2-(3-Fluorophenyl)-N-(9H-pyrido[3,4-b]indol-7-yl)acetamide]
25 | 383 | N#Cc1cccc(CC(=O)Nc2ccc3c(c2)[nH]c2cnccc23)c1 [Example IV-5, 2-(3-Cyanophenyl)-N-(9H-pyrido[3,4-b]indol-7-yl)acetamide]
26 | 557 | O=C(Nc1ccc2c(c1)OCc1cnccc1-2)Nc1ccccc1Cl [II-2, 1-(2-chlorophenyl)-3-(5H-chromeno[3,4-c]pyridin-8-yl) urea]
27 | 189 | O=C(NCCc1ccccc1)Nc1ccc2c(c1)OCc1cnccc1-2 [II-3, 1-(5H-chromeno[3,4-c]pyridin-8-yl)-3-phenethylurea]
28 | 2370 | O=C(Nc1cccc(Cl)c1)Nc1ccc2c(c1)OCc1cnccc1-2 [II-4, 1-(3-chlorophenyl)-3-(5H-chromeno[3,4-c]pyridin-8-yl) urea]
29 | 1420 | O=C(Nc1cccnc1)Nc1ccc2c(c1)OCc1cnccc1-2 [II-5, 1-(5H-chromeno[3,4-c]pyridin-8-yl)-3-(pyridin-3-yl)urea]
30 | 1610 | COc1ccc(CCNC(=O)Nc2ccc3c(c2)OCc2cnccc2-3)cc1 [II-6, 1-(5H-chromeno[3,4-c]pyridin-8-yl)-3-(4-methoxyphenethyl) urea]
31 | 233 | O=C(NCCc1ccccc1F)Nc1ccc2c(c1)OCc1cnccc1-2 [II-7, 1-(5H-chromeno[3,4-c]pyridin-8-yl)-3-(2-fluorophenethyl)urea]
32 | 910 | O=C(NCC(c1ccccc1)c1ccccc1)Nc1ccc2c(c1)OCc1cnccc1-2 [II-8, 1-(5H-chromeno[3,4-c]pyridin-8-yl)-3-(2,2-diphenylethyl)urea]
33 | 971 | O=C(NCCc1ccc(Cl)cc1)Nc1ccc2c(c1)OCc1cnccc1-2 [II-9, 1-(4-chlorophenethyl)-3-(5H-chromeno[3,4-c]pyridin-8-yl) urea]
34 | 248 | O=C(NCCc1cccc(Cl)c1)Nc1ccc2c(c1)OCc1cnccc1-2 [II-10, 1-(3-chlorophenethyl)-3-(5H-chromeno[3,4-c]pyridin-8-yl) urea]
35 | 2240 | Cc1onc(-c2ccccc2)c1NC(=O)Nc1ccc2c(c1)OCc1cnccc1-2 [II-11, 1-(5H-chromeno[3,4-c]pyridin-8-yl)-3-(5-methyl-3-phenylisoxazol-4-yl)urea]
36 | 685 | O=C(NCCc1ccc2c(c1)OCO2)Nc1ccc2c(c1)OCc1cnccc1-2 [II-12, 1-(2-(benzo[d][1,3]dioxol-5-yl)ethyl)-3-(5H-chromeno[3,4-c]pyridin-8-yl)urea]

Test system: neointimal formation
Assay: not given
Conditions: rats, balloon injury model; cited from earlier work

Row | Structure (SMILES) | neointimal formation
37 | C[C@@H](N)[C@H]1CC[C@H](C(=O)Nc2ccncc2)CC1 [Example Y-27632, Y-27632] | inhibited neointimal formation

Test system: rat models of hypertension
Assay: not given
Conditions: control rats; cited from earlier work

Row | Structure (SMILES) | blood pressure in control rats
38 | C[C@@H](N)[C@H]1CC[C@H](C(=O)Nc2ccncc2)CC1 [Example Y-27632, Y-27632] | only a minor effect on blood pressure

Same assay, conditions: spontaneously hypertensive rat, renal hypertensive rat and deoxycortisone acetate salt hypertensive rat models; cited from earlier work

Row | Structure (SMILES) | blood pressure
39 | C[C@@H](N)[C@H]1CC[C@H](C(=O)Nc2ccncc2)CC1 [Example Y-27632, Y-27632] | significantly decrease blood pressure
